According to patent US20240182470A1, “KRASG12C MUTANT PROTEIN INHIBITOR, PREARATION AND USE THEREOF” (YA THERAPEUTICS INC, priority 2021, published 2024):
Where two headings read alike, the source gives them in different places.

What was measured:
[1] = background statement; cited from earlier work
[2] = test system: H358 (KRAS G12C mutant) cells; experiment: Tumor cell proliferation inhibition assay (Cell Titer-Glo, 72 h); type: cell-based; conditions: inhibition of tumor cell proliferation, 72 hours with compound, 10% fetal bovine serum, read-out: NCI-H538 IC50(nm)
Method in brief: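 H358 cells seeded, cultured 24 h, then exposed to serial compound concentrations for 72 h in 10% FBS at 37 °C, 5% CO2. ATP measured by CellTiter-Glo; % inhibition relative to DMSO (max) and medium-only (min) signals. IC50 from sigmoid dose-response fit, binned into categories A–D.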

KRAS-G2C/SOS1 = target: T1, KRAS-G2C/SOS1 (Homo sapiens, UniProt P01116, G12C); experiment: KRAS-G12C/SOS1 binding experiment (HTRF); conditions: Tag2-KRAS-G12C protein and Tag1-SOS protein
T1 construct: Tag2 (identity not disclosed)
Method: • A) Dilute Tag2-KRAS-G12C protein and Tag1-SOS protein with diluent at 1:100, anti-Tag1-Tb3+ antibody and anti-Tag2-XL665 with detection buffer at 1:100 or 1:25 respectively Dilute. • B) Dilute the compound to be tested with diluent starting from […] concentration, 4 times gradient, a total of 6 concentration gradients, and dilute to 10× stock solution. • C) In a 96-well plate, add 4 uLTag2-KRAS-G12C protein, 4 uL Tagl-SOS protein, 2 ul dilution solution (positive control) or test compound (different concentrations of 10× stock solution) to each well in sequence, a total of 10 ul, and incubate at room temperature for […], add pre-mixed 5 uL anti-Tagl-Tb3+ and 5 uL anti-Tag2-xL665, seal the plate, incubate at room temperature for 2 hours, and read the HTRF signal with a TECAN INFINITEF NANO+ microplate reader.
The ratio of […] and donor excitation signals for each single well was calculated using the formula ratio=665 nm signal value/620 nm signal value×[…]. Data were processed using Graphpadprism5 software. IC50 values were calculated by sigmoidal dose-response curve fitting.

KRAS G12C = KRAS G12C (Homo sapiens, UniProt P01116, G12C); conditions: background statement; cited from earlier work

| Molecule | IC50 [2] [nM] | IC50 (KRAS-G2C/SOS1) [nM] | IC50 ([2]; Homo sapiens, NCI-H358) [nM] | other results |
| --- | --- | --- | --- | --- |
| C=CC(=O)N1CC(N2CCN(C(=O)CNc3cc(C4(C)CC4)c(Cl)cc3O)CC2)C1 [ARS-853] |  |  |  | pharmacokinetic properties [1]: poor |
| 7-(8-Fluoronaphthyl)-6-fluoro-4-(((S)-4-(2-fluoroacryloyl)-3-carbonitrileethylpiperazine)-1-yl)-2-((((S)-1-methylpyrrolidin-2-yl)methoxy)-1,8-naphthyridine [Compound 5] | ≤ 50 | < 50 |  |  |
| C=CC(=O)N1C2CCC1CN(c1cc(OC[C@@]34CCCN3C[C@H](F)C4)nc3nc(-c4cccc5cccc(F)c45)c(F)cc13)C2 [Compound 28] |  | < 50 | ≤ 50 |  |
| C=CC(=O)N1CCN(c2cc(OC[C@@H]3CCCN3C)nc3nc(-c4c(O)cccc4F)c(F)cc23)C[C@@H]1CC#N [Compound 3] |  | > 500 | > 2000 |  |
| C=CC(=O)N1CCN(c2cc(OC[C@@H]3CCCN3C)nc3nc(-c4cccc5cccc(F)c45)c(F)cc23)[C@H](C)C1 [Compound 7] |  | < 50 | ≤ 50 |  |
| C=C(F)C(=O)N1CCN(c2cc(OC[C@@H]3CCCN3C)nc3nc(-c4c(O)cccc4F)c(F)cc23)[C@H](C)C1 [Compound 2, 7-(2-Fluoro-6-hydroxyphenyl)-6-fluoro-4-(((R)-4-(2-fluoroacryloyl)-2-methylpiperazine)-1-yl)-2-(((S)-1-methylpyrrolidin-2-yl)methoxy)-1,8-naphthyridine] |  | > 500 | > 2000 |  |
| C=C(F)C(=O)N1CCN(c2cc(OC[C@@H]3CCCN3C)nc3nc(-c4c(O)cccc4F)c(F)cc23)C[C@@H]1CC#N [Compound 4, 7-(2-Fluoro-6-hydroxyphenyl)-6-fluoro-4-(((S)-4-(2-fluoroacryloyl)-3-carbonitrileethylpiperazine)-1-yl)-2-(((S)-1-methylpyrrolidin-2-yl)methoxy)-1,8-naphthyridine] |  | > 500 | > 2000 |  |
| C=CC(=O)N1CCN(c2ncnc3c(F)c(-c4c(O)cccc4F)c(Cl)cc23)CC1 [ARS-1620] |  |  |  | tumor effect in vivo (KRAS G12C): induce tumor regression |
| C=CC(=O)N1CCN(c2cc(OC[C@@H]3CCCN3C)nc3nc(-c4c(O)cccc4F)ccc23)[C@H](C)C1 [Compound 1, 7-(2-Fluoro-6-hydroxyphenyl)-4-(((R)-4-acryloyl-2-methylpiperazine)-1-yl)-2-(((S)-1-methylpyrrolidin-2-yl)methoxy)-1,8-naphthyridine] | > 2000 | > 500 |  |  |
| 7-(8-Methylnaphthalene)-4-(((R)-4-Acryloyl-3-carbonitrileethylpiperazine)-1-yl)-24(1-(N,N-Dimethyl)amino)methylcyclopropan-1-yl)methoxy)pyridine[2,3-d]lopyrimidine [Compound 19] | ≤ 50 |  |  |  |
| C=CC(=O)N1CCN(c2nc(OCC34CCCN3CCC4)nc3c(F)c(-c4cccc5cccc(F)c45)ccc23)[C@H](C)C1 [Compound 50, 7-(8-fluoronaphthyl)-8-fluoro-4-(((R)-4-acryloyl-2-methylpiperazine)-1-yl)-2-((tetrahydro-1H-pyrinecyclo-7a(5H)-yl)methoxy)quinazoline] | ≤ 50 |  |  |  |
| C=C(F)C(=O)N1CCN(c2nc(OC[C@@]34CCCN3C[C@H](F)C4)nc3nc(-c4cccc5cccc(F)c45)ccc23)C[C@@H]1CC#N [Compound 92, 7-(8-Fluoronaphthyl)-4-(((S)-4-(2-fluoroacryloyl)-3-carbonitrileethylpiperazine)-1-yl)-2-(((2R,7aS)-2-fluorotetrahydro-1H-pyrincycl-7a(5H)-yl)methoxy)pyridine[2,3-d]lopyrimidine] | ≤ 50 |  |  |  |
| C=C(F)C(=O)N1C2CCC1CN(c1nc(OC[C@@]34CCCN3C[C@H](F)C4)nc3nc(-c4cc(O)cc5cccc(F)c45)c(F)cc13)C2 [Compound 32, 7-(3-Hydroxy-8-fluoronaphthyl)-6-fluoro-4-(8-(2-fluoroacryloyl)-3,8-diazabicyclo[3.2.1]octan-3-yl)-2-(((2R,7aS)-2-fluorotetrahydro-1H-pyrincycl-7a(5H)-yl)methoxy)pyridine[2,3-d]lopyrimidine] | ≤ 50 |  |  |  |
